Results as given in patent publication US20140308261A1, “HLA-DR7 HY epitope and method for treating leukaemia” (Etablissement Français du Sang, priority 2011, published 2014).

Test system: CD4^+ T-lymphocytes
Test: Cytokine mRNA expression profile after stimulation of CD4+ T-lymphocytes with short peptides from QR-40 pulsed on HLA-DR7 EBV cells
Assay type: cell-based, human
From the text: The total RNA of the clones or cell lines was isolated from 1×10^6 cells by using the Rnagent kit (Promega, Madison, Wis., United States). The total RNA was converted to single stranded cDNA by using an oligo (dT) primer (Amersham Pharmacia Biotech, Orsay, France) and the reverse transcriptase of the avian myeloblastosis virus, in conformance with the manufacturer's specifications (Promega).
HY-specific CD4^+ T-lymphocytes were stimulated, each with […] EBV-B LCL transduced with the HY gene. The proliferation and production of IFN-γ were measured by the incorporation of ^3H-[methyl-thymidine] on day 3, and ELISA on day 1. To map the precise T-lymphocyte epitope restricted to the MHC class II, the inventors synthesized several long peptides with a potential bond with DRB1*0701 encoded in the RPS4Y regions which are different from RPS4X, based on several databases for MHC peptide binding, such as SYFPEITHI, Net-MHC, Propred and HotSpot Hunter. These peptides were tested at various concentrations: from 100 μM to 10 nM, using […] EBV-B-LCLs that express the HLA-DRB1*0701 molecule in the form of APC. The short peptide in question was identified using a series of peptides of 15 amino acids, also identified from these databases, and which are present in the long peptide which induces a positive response.
The inventors were therefore able to identify TGKIINFIKFDTGNL (SEQ ID NO: 1) as the HY peptide epitope recognized by the CD4^+ T-lymphocytes (FIG. 6). […] It is interesting to note that the cloned T-lymphocytes presented the same cytokine profile as the T-lymphocyte cell line.

[1] = female HLA-DR7 EBV cells pulsed with peptide

Sequence	FoxP3/CD3ε mRNA ratio (peptide 1 μM)	IFNγ/CD3ε mRNA ratio (peptide 1 μM)	IL2/CD3ε mRNA ratio (peptide 1 μM)	FoxP3/CD3ε mRNA ratio (peptide 10 μM)	IFNγ/CD3ε mRNA ratio (peptide 10 μM)	IL2/CD3ε mRNA ratio (peptide 10 μM)	stimulation of the CD4+ T-lymphocytes by 15-mer peptides in QR-40 (in words) (Table 9)	FoxP3 mRNA response (in words) (at 1 μM)	IFNγ mRNA induction (in words) [1]	IL-2 mRNA expression (in words) [1]
GKIINFIKFDTGNLCMV (Peptide GV17) [short peptide from peptide QR-40]	0.12	0.12	0.02	0.27	0.82	0.02	–	–	–	–
TGKIINFIKFDTGNL (peptide TL15) [HY epitopic 15-mer peptide from RPS4Y presented by HLA-DR7]	0.42	9.91	0.06	0.44	12.63	0.23	stimulated the cells	highest FoxP3 mRNA response	specific IFNγ induction	low IL-2 mRNA expression
TGNLCMVIGGANLGRVG (Peptide TG17-1) [short peptide from peptide QR-40]	0.12	0.11	0.006	0.32	0.11	0.02	–	–	–	–
TGNVCMVIAGANLGRVG (Peptide TG17-2) [short peptide tested with the QR-40 peptides]	0.23	0.009	0.0047	0.3	0.5	0.01	–	–	–	–
